± gives the standard deviation of the averaged measurements.
What was measured:
Settings in all cases: 72 h
Caco-2 [1] = assay: drug sensitivity score (DSS) for viability; higher = more toxic; extreme values may be limits of the assay
U2OS [2] = assay: as above
Vero E6 [3] = assay: as above
HepG2 [4] = assay: as above
Calu-3 [5] = assay: as above
Caco-2 [6] = assay: relative viability EC50 (midpoint between 100% and the lowest measured viability); higher = less toxic
U2OS [7] = assay: as above
Vero E6 [8] = assay: as above
HepG2 [9] = assay: as above
Calu-3 [10] = assay: as above
Caco-2 [11] = assay: cell viability relative to DMSO; higher = less toxic
U2OS [12] = assay: as above
Vero E6 [13] = assay: as above
HepG2 [14] = assay: as above
Calu-3 [15] = assay: as above

| SMILES | drug sensitivity score (Caco-2 [1]) | drug sensitivity score (U2OS [2]) | drug sensitivity score (Vero E6 [3]) | drug sensitivity score (HepG2 [4]) | drug sensitivity score (Calu-3 [5]) | relative viability EC50 (Caco-2 [6]) [µM] | relative viability EC50 (U2OS [7]) [µM] | relative viability EC50 (Vero E6 [8]) [µM] | relative viability EC50 (HepG2 [9]) [µM] | relative viability EC50 (Calu-3 [10]) [µM] | cell viability (Caco-2 [11]; 1 nM) [%] | cell viability (Caco-2 [11]; 10 nM) [%] | cell viability (Caco-2 [11]; 100 nM) [%] | cell viability (Caco-2 [11]; 1000 nM) [%] | cell viability (Caco-2 [11]; 10000 nM) [%] | cell viability (U2OS [12]; 1 nM) [%] | cell viability (U2OS [12]; 10 nM) [%] | cell viability (U2OS [12]; 100 nM) [%] | cell viability (U2OS [12]; 1000 nM) [%] | cell viability (U2OS [12]; 10000 nM) [%] | cell viability (Vero E6 [13]; 1 nM) [%] | cell viability (Vero E6 [13]; 10 nM) [%] | cell viability (Vero E6 [13]; 100 nM) [%] | cell viability (Vero E6 [13]; 1000 nM) [%] | cell viability (Vero E6 [13]; 10000 nM) [%] | cell viability (HepG2 [14]; 1 nM) [%] | cell viability (HepG2 [14]; 10 nM) [%] | cell viability (HepG2 [14]; 100 nM) [%] | cell viability (HepG2 [14]; 1000 nM) [%] | cell viability (HepG2 [14]; 10000 nM) [%] | cell viability (Calu-3 [15]; 1 nM) [%] | cell viability (Calu-3 [15]; 10 nM) [%] | cell viability (Calu-3 [15]; 100 nM) [%] | cell viability (Calu-3 [15]; 1000 nM) [%] | cell viability (Calu-3 [15]; 10000 nM) [%] |
| --- | --- | --- | --- | --- | --- | --- | --- | --- | --- | --- | --- | --- | --- | --- | --- | --- | --- | --- | --- | --- | --- | --- | --- | --- | --- | --- | --- | --- | --- | --- | --- | --- | --- | --- | --- |
| C[C@@H]1CC[C@@]2(OC1)O[C@H]1C[C@H]3[C@@H]4CC=C5C[C@@H](O)CC[C@]5(C)[C@H]4CC[C@]3(C)[C@H]1[C@@H]2C [diosgenin] | 0 | 0 | 0 | 0 | 0 | > 10 | > 10 | > 10 | > 10 | > 10 | 105 | 97.9 | 101 | 94.5 | 101 | 95.9 | 99.1 | 101 | 99.9 | 98.1 | 102 | 107 | 102 | 103 | 98.1 | 101 | 105 | 98.8 | 102 | 106 | 96.8 | 91.3 | 84.2 | 95.4 | 95.4 |
| CCCCCCCCCCCCOS(=O)(=O)O [dodecyl-sulfate] | 0.05 ± 0.071 | 0 | 0 | 0 | 0 | > 10 | > 10 | > 10 | > 10 | > 10 | 101 ± 8.6 | 99.5 ± 16 | 102 ± 3.1 | 99.2 ± 3.1 | 106 ± 27 | 100 ± 4.9 | 93.5 ± 0.28 | 102 ± 4 | 91.7 ± 0.28 | 100 ± 4.6 | 100 ± 5.2 | 102 ± 7.9 | 95.7 ± 5.3 | 104 ± 1.7 | 101 ± 6.7 | 106 ± 15 | 106 ± 12 | 102 ± 7 | 99.6 ± 5.7 | 92.1 ± 3.1 | 106 ± 17 | 94.5 ± 9 | 103 ± 4.2 | 90.5 ± 6.3 | 106 ± 3.5 |
| COc1cc2c(cc1OC)CN(CCc1ccc(NC(=O)c3cccc4c(=O)c5cccc(OC)c5[nH]c34)cc1)CC2 [elacridar] | 0 | 0 | 0 | 0 | 0 | > 10 | > 10 | > 10 | > 10 | > 10 | 97.3 | 91.6 | 92.2 | 95.5 | 88.3 | 96.5 | 99.3 | 99.2 | 100 | 99.8 | 97 | 94.8 | 98.7 | 93.5 | 103 | 99.6 | 107 | 101 | 96.6 | 97.9 | 98.9 | 94.3 | 99.6 | 101 | 89 |
| O=C(Cn1ccnc1[N+](=O)[O-])NCCO [etanidazole] | 0 | 0 | 0 | 0 | 0 | > 10 | > 10 | > 10 | > 10 | > 10 | 100 | 94.1 | 95.9 | 91.5 | 92.7 | 101 | 97.1 | 102 | 99.1 | 102 | 103 | 104 | 106 | 101 | 97.7 | 98.7 | 106 | 92.3 | 101 | 88.8 | 98.8 | 92.4 | 94 | 98.1 | 107 |
| CC[C@@H](CO)NCCN[C@@H](CC)CO [ethambutol] | 0 | 0 | 0 | 0 | 0 | > 10 | > 10 | > 10 | > 10 | > 10 | 99.1 | 92.3 | 97.6 | 102 | 104 | 103 | 98 | 103 | 96.5 | 99.3 | 92.3 | 98.2 | 90.8 | 99.1 | 102 | 93.3 | 108 | 90.3 | 95.2 | 98.7 | 98.9 | 88.7 | 96 | 90.4 | 96.7 |
| CCNCC(O)c1cccc(O)c1 (stereo not given) [etilefrine] | 0 | 0 | 0 | 0 | 0 | > 10 | > 10 | > 10 | > 10 | > 10 | 92.1 | 105 | 93 | 99.7 | 104 | 98.9 | 103 | 98.1 | 98.9 | 95.7 | 97.1 | 93.6 | 98.3 | 96.4 | 99.6 | 95.2 | 87.3 | 89 | 93 | 104 | 99.2 | 102 | 98.9 | 102 | 104 |
| CCOC(=O)[C@@]1(CCCCCCOc2ccc(Cl)cc2)CO1 [etomoxir] | 0.4 | 0 | 0 | 0 | 0 | > 10 | > 10 | > 10 | > 10 | > 10 | 92.6 | 97.6 | 98.2 | 98 | 85.6 | 105 | 102 | 104 | 103 | 97.7 | 113 | 106 | 110 | 104 | 98.1 | 115 | 106 | 101 | 108 | 91.7 | 106 | 114 | 98.2 | 117 | 110 |
| COCCCC/C(=N\OCCN)c1ccc(C(F)(F)F)cc1 [fluvoxamine] | 4 | 0 | 0 | 0 | 0 | > 10 | > 10 | > 10 | > 10 | > 10 | 124 | 109 | 84.3 | 80.6 | 94.1 | 104 | 97.3 | 98 | 96.4 | 98.5 | 91.6 | 103 | 98.1 | 101 | 88 | 99.3 | 93.5 | 100 | 105 | 100 | 102 | 109 | 95.6 | 96.5 | 93.7 |
| C[C@@H](O[C@H]1OCCN(Cc2nn(P(=O)(O)O)c(=O)[nH]2)[C@H]1c1ccc(F)cc1)c1cc(C(F)(F)F)cc(C(F)(F)F)c1 [fosaprepitant-dimeglumine] | 0 | 0.1 | 0 | 0.1 | 0 | > 10 | > 10 | > 10 | > 10 | > 10 | 98.4 | 95.1 | 93.2 | 102 | 90.8 | 98.6 | 103 | 95.4 | 96.1 | 86.4 | 92.5 | 97.3 | 97.9 | 99.6 | 99.7 | 93.6 | 93.4 | 88.7 | 91.9 | 89.6 | 99.7 | 93.8 | 102 | 93.8 | 108 |
| CC(OC(=O)NCC1(CC(=O)O)CCCCC1)OC(=O)C(C)C (stereo not given) [gabapentin-enacarbil] | 0 | 0 | 0 | 0 | 0 | > 10 | > 10 | > 10 | > 10 | > 10 | 105 | 87.2 | 106 | 110 | 104 | 101 | 96.5 | 102 | 94 | 102 | 83.4 | 97.8 | 84.2 | 107 | 106 | 101 | 93.8 | 94.7 | 90.1 | 89.4 | 103 | 96.3 | 106 | 104 | 89 |
| Oc1noc2c1CCNC2 [gaboxadol] | 0 | 0 | 0 | 0 | 0 | > 10 | > 10 | > 10 | > 10 | > 10 | 92.6 | 99 | 91.6 | 104 | 95.3 | 102 | 100 | 94.3 | 98.3 | 94.2 | 96.6 | 95.8 | 96.2 | 94.6 | 106 | 105 | 101 | 88.2 | 101 | 98.1 | 99.7 | 91.4 | 103 | 103 | 99.4 |
| C[C@H](N)Cc1cccc(O)c1 [gepefrine] | 0 | 0 | 0 | 0 | 0 | > 10 | > 10 | > 10 | > 10 | > 10 | 91.3 | 104 | 88 | 99.1 | 111 | 88 | 93.9 | 90.3 | 95 | 103 | 99.7 | 96 | 98.1 | 101 | 111 | 103 | 97.2 | 96.8 | 104 | 109 | 93.4 | 100 | 102 | 99.7 | 88.7 |
| NNc1nncc2ccccc12 [hydralazine] | 0 | 0 | 0 | 0 | 2.2 | > 10 | > 10 | > 10 | > 10 | > 10 | 104 | 105 | 91.4 | 108 | 88.3 | 98.4 | 102 | 99.4 | 101 | 95.8 | 98.7 | 101 | 105 | 105 | 99.3 | 98.4 | 106 | 128 | 98.5 | 114 | 95 | 102 | 89 | 85.3 | 85 |
| CCCCC(=O)O[C@]1(C(=O)CO)CC[C@H]2[C@@H]3CCC4=CC(=O)CC[C@]4(C)[C@H]3[C@@H](O)C[C@@]21C [hydrocortisone-valerate] | 0 | 0 | 0 | 0 | 0 | > 10 | > 10 | > 10 | > 10 | > 10 | 103 | 99 | 88 | 109 | 99.3 | 95.5 | 97.1 | 92.5 | 100 | 93.2 | 107 | 105 | 101 | 98.5 | 101 | 103 | 97 | 101 | 96.5 | 103 | 87.3 | 97.1 | 86.5 | 95.9 | 103 |

From the supplement of paper PMC13380429
